Assay results published in BindingDB's records for doi:10.1074/jbc.M111.326777 (University of North Carolina, 2012).
Structures can show the parent of a compound that is named as a salt.

Columns and labels:
Assay in all cases: Enzymatic Assay
Settings in all cases: pH 7.5; 24 °C
Phosphodiesterase = biological target: T1, Phosphodiesterase (Trypanosoma cruzi, UniProt Q53I59)
T1 sequence (Q53I59 whole entry): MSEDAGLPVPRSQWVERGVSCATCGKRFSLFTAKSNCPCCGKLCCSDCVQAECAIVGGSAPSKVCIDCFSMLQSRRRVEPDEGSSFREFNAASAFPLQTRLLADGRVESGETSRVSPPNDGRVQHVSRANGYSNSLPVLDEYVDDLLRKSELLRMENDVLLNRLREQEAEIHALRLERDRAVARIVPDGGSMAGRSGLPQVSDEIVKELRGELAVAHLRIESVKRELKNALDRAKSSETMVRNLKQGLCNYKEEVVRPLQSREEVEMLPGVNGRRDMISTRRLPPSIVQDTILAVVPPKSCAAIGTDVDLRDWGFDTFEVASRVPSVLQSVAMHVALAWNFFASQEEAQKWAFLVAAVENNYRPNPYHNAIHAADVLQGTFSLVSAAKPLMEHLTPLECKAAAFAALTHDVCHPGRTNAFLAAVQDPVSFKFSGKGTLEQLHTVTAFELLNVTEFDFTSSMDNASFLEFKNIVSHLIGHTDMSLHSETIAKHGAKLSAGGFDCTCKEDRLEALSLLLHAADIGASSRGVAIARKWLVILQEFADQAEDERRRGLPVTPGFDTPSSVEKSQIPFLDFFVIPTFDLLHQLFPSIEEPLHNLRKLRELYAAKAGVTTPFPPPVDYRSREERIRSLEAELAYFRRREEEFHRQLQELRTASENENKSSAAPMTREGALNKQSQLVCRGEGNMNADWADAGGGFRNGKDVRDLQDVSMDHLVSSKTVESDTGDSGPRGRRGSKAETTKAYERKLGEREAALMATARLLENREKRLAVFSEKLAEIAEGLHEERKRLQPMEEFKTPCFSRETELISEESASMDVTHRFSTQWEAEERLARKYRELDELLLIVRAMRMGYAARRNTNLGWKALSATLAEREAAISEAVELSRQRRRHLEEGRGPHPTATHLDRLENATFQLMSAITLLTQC
Protocol: (§1) Enzymatic activities were assayed using [3H] cAMP and [3H]cGMP as substrate.

[1] = biological target: cGMP-inhibited 3',5'-cyclic phosphodiesterase 3A (Homo sapiens, UniProt Q14432)
Protocol: as §1

[2] = biological target: High affinity cAMP-specific and IBMX-insensitive 3',5'-cyclic phosphodiesterase 8A (Homo sapiens, UniProt O60658)
Protocol: as §1

[3] = biological target: cAMP-specific 3',5'-cyclic phosphodiesterase 4D (Homo sapiens, UniProt Q08499)
Protocol: as §1

[4] = biological target: cGMP-dependent 3',5'-cyclic phosphodiesterase (Homo sapiens, UniProt O00408)
Protocol: as §1

[5] = biological target: cGMP-specific 3',5'-cyclic phosphodiesterase (Homo sapiens, UniProt O76074)
Protocol: as §1

cGMP-inhibited 3',5'-cyclic phosphodiesterase 3A, sequence (Q14432 whole entry): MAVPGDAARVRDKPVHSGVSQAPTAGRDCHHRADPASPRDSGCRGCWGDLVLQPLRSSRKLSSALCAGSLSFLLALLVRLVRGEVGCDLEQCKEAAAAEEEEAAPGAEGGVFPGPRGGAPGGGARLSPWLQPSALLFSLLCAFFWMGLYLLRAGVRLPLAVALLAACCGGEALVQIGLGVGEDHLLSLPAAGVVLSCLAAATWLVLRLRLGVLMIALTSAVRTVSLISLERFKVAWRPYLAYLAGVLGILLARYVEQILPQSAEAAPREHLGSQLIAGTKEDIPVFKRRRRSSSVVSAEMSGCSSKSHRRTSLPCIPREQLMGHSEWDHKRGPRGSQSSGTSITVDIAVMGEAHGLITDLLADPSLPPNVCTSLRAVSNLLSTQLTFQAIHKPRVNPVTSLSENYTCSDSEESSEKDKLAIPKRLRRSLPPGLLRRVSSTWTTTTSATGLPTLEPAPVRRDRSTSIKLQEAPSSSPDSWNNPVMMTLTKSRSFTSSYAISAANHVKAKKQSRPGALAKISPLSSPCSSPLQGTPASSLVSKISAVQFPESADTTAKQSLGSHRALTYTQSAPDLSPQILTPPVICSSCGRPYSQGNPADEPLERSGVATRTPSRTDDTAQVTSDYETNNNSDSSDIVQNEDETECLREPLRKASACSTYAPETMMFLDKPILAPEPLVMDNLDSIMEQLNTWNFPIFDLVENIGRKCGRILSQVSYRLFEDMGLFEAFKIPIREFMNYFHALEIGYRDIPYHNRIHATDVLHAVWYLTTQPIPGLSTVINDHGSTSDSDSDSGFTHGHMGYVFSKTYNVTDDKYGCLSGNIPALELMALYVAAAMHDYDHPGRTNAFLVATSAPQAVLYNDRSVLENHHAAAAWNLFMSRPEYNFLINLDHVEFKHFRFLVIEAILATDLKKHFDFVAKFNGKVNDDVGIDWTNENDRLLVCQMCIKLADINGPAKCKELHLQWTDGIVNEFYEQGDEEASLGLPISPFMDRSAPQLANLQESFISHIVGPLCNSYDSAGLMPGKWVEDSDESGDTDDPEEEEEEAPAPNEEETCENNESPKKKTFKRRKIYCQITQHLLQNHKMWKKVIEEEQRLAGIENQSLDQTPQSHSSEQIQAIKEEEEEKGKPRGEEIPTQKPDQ
cAMP-specific 3',5'-cyclic phosphodiesterase 4D, sequence (Q08499 whole entry): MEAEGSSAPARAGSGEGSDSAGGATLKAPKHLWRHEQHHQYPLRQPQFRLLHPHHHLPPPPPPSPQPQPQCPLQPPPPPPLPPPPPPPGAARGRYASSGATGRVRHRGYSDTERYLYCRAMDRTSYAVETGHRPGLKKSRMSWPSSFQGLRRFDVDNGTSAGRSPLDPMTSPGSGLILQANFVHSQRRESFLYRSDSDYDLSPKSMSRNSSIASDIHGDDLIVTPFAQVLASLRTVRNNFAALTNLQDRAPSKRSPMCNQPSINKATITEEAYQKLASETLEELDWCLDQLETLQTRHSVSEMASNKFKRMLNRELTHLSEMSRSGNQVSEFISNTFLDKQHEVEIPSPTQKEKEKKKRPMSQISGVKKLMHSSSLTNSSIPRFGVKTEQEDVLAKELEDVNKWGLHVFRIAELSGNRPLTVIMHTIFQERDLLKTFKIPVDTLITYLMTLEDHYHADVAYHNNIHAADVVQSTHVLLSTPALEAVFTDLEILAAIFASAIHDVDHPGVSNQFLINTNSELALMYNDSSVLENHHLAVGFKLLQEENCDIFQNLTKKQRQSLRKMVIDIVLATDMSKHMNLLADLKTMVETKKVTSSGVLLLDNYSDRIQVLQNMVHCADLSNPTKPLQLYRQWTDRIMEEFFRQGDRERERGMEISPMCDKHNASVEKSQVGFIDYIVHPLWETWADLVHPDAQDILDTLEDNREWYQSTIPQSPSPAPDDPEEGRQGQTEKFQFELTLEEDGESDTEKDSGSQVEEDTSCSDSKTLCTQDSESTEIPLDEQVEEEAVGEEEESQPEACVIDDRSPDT
High affinity cAMP-specific and IBMX-insensitive 3',5'-cyclic phosphodiesterase 8A, sequence (O60658 whole entry): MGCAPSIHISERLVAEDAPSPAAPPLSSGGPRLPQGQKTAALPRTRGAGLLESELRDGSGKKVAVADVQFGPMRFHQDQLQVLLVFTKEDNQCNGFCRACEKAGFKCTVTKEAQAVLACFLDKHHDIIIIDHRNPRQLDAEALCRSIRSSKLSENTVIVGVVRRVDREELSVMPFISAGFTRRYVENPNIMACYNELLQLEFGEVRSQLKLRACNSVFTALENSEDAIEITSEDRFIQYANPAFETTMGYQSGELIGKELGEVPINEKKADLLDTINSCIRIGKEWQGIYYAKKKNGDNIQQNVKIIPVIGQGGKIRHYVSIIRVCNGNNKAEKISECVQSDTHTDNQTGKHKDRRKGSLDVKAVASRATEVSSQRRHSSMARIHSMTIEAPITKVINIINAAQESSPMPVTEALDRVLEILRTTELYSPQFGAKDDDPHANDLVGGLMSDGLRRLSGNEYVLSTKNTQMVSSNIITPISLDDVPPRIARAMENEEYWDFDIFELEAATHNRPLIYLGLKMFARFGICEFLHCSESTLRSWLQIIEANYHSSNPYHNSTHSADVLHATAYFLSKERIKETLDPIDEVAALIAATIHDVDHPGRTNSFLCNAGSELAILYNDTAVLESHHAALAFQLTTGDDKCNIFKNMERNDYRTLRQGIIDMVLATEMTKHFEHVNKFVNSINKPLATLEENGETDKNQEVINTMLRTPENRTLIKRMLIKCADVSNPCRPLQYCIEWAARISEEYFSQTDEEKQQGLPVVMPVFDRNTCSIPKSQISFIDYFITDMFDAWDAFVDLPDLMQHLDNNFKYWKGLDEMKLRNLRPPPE
cGMP-dependent 3',5'-cyclic phosphodiesterase, sequence (O00408 whole entry): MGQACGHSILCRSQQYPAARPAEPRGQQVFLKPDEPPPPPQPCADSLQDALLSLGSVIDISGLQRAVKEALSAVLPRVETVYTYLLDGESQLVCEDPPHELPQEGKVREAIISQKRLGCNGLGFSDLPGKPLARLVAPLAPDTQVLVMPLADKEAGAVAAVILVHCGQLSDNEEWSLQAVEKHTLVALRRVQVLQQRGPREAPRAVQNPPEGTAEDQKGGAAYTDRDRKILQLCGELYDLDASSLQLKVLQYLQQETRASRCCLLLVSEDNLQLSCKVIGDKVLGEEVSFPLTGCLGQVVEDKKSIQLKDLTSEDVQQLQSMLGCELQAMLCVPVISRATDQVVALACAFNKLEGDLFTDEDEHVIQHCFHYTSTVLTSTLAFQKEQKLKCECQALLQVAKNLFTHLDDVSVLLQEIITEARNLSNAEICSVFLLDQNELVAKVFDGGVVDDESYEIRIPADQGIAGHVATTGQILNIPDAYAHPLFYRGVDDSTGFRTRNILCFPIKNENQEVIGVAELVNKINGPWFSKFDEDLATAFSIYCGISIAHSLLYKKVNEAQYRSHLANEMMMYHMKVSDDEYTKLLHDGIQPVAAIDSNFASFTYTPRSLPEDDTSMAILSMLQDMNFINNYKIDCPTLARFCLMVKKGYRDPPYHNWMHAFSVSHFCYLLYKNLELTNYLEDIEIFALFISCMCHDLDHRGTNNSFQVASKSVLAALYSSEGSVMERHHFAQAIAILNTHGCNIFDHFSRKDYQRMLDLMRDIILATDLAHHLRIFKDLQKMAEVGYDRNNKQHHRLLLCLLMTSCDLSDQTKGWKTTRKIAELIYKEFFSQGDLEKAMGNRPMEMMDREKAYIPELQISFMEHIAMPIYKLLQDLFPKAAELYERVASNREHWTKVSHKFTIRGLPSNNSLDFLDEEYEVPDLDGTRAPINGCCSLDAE

| SMILES | IC50 (Phosphodiesterase) | also measured |
| --- | --- | --- |
| COc1ccc([C@@H]2CNC(=O)C2)cc1OC1CCCC1 (racemic) [Adeo] | > 100000 nM |  |
| COc1ccc(Cc2nccc3cc(OC)c(OC)cc23)cc1OC | 25000 nM |  |
| COc1cc(-c2ccc(=O)[nH]n2)ccc1OC(F)F [6-[4-(difluoromethoxy)-3-methoxyphenyl]-2,3-dihydropyridazin-3-one] | > 100000 nM | IC50 [1]: 500 nM |
| COc1cc2c(cc1OC)-c1c/c(=N\c3c(C)cc(C)cc3C)n(C)c(=O)n1CC2 [CAS_5537] | 3900 nM | IC50 [1]: 0.3 nM |
| OCCN(CCO)c1nc(N2CCCCC2)c2nc(N(CCO)CCO)nc(N3CCCCC3)c2n1 [Dipyridamine] | 6900 nM | IC50 [2]: 500 nM |
| CC(C)Cn1c(=O)n(C)c(=O)c2[nH]cnc21 [1-methyl-3-(2-methylpropyl)-2,3,6,7-tetrahydro-1H-purine-2,6-dione] | 68000 nM |  |
| CC(=O)CCCCn1c(=O)c2c(ncn2C)n(C)c1=O [1-(5-Oxohexyl)theobromine (pentoxifylline)] | > 100000 nM |  |
| CCOC(=O)c1cnc2c(cnn2CC)c1N=NC(C)C [1-Ethyl-4-(N'-isopropylidene-hydrazino)-1H-pyrazolo[3,4-b]pyridine-5-carboxylic acid ethyl ester] | 700 nM | IC50 [3]: 2000 nM |
| CCCCCC[C@H]([C@H](C)O)n1cnc2c(N)ncnc21 (relative stereo) [3-(6-amino-9H-purin-9-yl)nonan-2-ol] | > 100000 nM | IC50 [4]: 800 nM |

Further lines, with some results ahead:

| IC50 (Phosphodiesterase) | SMILES | also measured |
| --- | --- | --- |
| > 100000 nM | CCCOc1cc(CC2CNC(=O)N2)ccc1OC (stereo not given) [Ro20-1724] |  |
| > 1000 nM | CCCc1nn(C)c2c(=O)[nH]c(-c3cc(S(=O)(=O)N4CCN(C)CC4)ccc3OCC)nc12 [SILDENAFIL CITRATE] |  |
| > 100000 nM | Cc1[nH]c(=O)c(C#N)cc1-c1ccncc1 [Milrinone] |  |
| 230 nM | CCCc1nn(C)c2c(=O)[nH]c(-c3cc(S(=O)(=O)NC(=O)OC(C)C)ccc3OCC)nc12 [Wyq16#] | IC50 [5]: 3 nM |
| > 100000 nM | CN(C(=O)CCCOc1ccc2[nH]c(=O)ccc2c1)C1CCCCC1 [N-Cyclohexyl-N-methyl-4-(2-oxo-1,2-dihydro-quinolin-6-yloxy)-butyramide] |  |
